Patent US10844049B2, “GLP-1R agonists and uses thereof” (QILU REGOR THERAPEUTICS INC., priority 2018, dated 2020)

Biological target: GLP1R (Homo sapiens, UniProt P43220)
Experiment: GLP1R cAMP HTRF assay, HEK293/GLP-1R/CRE/Luc (HEK293T cells)
Format: cell-based
Conditions: read-out: EC50
Method in brief: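 cAMP accumulation via HTRF after 30 min, 37 °C exposure of 1000 receptor-expressing cells/well to compound (0.5% DMSO final) in IBMX (500 μM)/0.1% BSA DPBS.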

Chain of GLP1R (P43220 24-463): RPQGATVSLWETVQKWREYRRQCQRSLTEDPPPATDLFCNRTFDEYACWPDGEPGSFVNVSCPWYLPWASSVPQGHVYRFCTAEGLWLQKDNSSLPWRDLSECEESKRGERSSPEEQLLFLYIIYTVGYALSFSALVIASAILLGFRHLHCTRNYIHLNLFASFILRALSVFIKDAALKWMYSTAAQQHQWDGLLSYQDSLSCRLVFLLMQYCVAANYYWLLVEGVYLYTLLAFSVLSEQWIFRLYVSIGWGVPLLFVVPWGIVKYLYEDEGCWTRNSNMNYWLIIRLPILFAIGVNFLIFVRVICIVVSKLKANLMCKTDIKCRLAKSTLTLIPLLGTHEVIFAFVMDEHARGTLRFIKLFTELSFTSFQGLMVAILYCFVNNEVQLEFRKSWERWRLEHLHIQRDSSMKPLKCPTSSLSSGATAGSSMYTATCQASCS

Structure (SMILES)	EC50 [nM]
N#Cc1ccc(COc2ccnc(C3=CCN(Cc4nc5ccc(C(=O)O)cc5n4C[C@@H]4CCO4)CC3)n2)c(F)c1 [Compound 176, (S)-2-((4-(4-((4-cyano-2-fluorobenzyl)oxy)pyrimidin-2-yl)-3,6-dihydropyridin-1(2H)-yl)methyl)-1-(oxetan-2-ylmethyl)-1H-benzo[d]imidazole-6-carboxylic add]	≤ 15
COc1ccc(COc2cccc(C3=CCN(Cc4nc5ccc(C(=O)O)cc5n4C[C@@H]4CCO4)CC3)n2)cn1 [Compound 119, (S)-2-((6-((6-methoxypyridin-3-yl)methoxy)-3′,6′-dihydro-[2,4′-bipyridin]-1(2′H)-yl)methyl)-1-(oxetan-2-ylmethyl)-1H-benzo[d]imidazole-6-carboxylic acid]	≤ 15
O=C(O)c1ccc2nc(CN3CC4CC3CN4c3cccc(OCc4ccc(Cl)cc4F)n3)n(C[C@@H]3CCO3)c2c1 (stereo partly drawn) [Compound 16, 2-((5-(6-((4-chloro-2-fluorobenzyl)oxy)pyridin-2-yl)-2,5-diazabicyclo[2.2.1]heptan-2-yl)methyl)-1-(((S)-oxetan-2-yl)methyl)-1 h-benzo[d]imidazole-6-carboxylic acid]	≤ 150
O=C(O)c1ccc2nc(CN3CC=C(c4cccc(OCc5ccc(-n6ccnc6)cc5)n4)CC3)n(C[C@@H]3CCO3)c2c1 [Compound 154, (S)-2-((6-((4-(1H-imidazol-1-yl)benzyl)oxy)-3′,6′-dihydro-[2,4′-bipyridin]-1′(2′H)-yl)methyl)-1-(oxetan-2-ylmethyl)-1H-benzo[d]imidazole-6-carboxylic acid]	≤ 15
Cc1ncccc1COc1cccc(C2=CCN(Cc3nc4ccc(C(=O)O)cc4n3C[C@@H]3CCO3)CC2)n1 [Compound 161, (S)-2-((6-((2-methylpyridin-3-yl)methoxy)-3′,6′-dihydro-[2,4′-bipyridin]-1′(2′ H)-yl)methyl)-1-(oxetan-2-ylmethyl)-1H-benzo[d]imidazole-6-carboxylic acid]	≤ 150
O=C(O)c1ccc2nc(CN3CC=C(c4cccc(OCc5cnccn5)n4)CC3)n(C[C@@H]3CCO3)c2c1 [Compound 165, (S)-1-(oxetan-2-ylmethyl)-2-((6-(pyrazin-2-ylmethoxy)-3′,6′-dihydro-[2,4′-bipyridin]-1′(2′H)-yl)methyl)-1H-benzo[d]imidazole-6-carboxylic acid]	≤ 1000
O=C(O)c1ccc2nc(CN3CC=C(c4cccc(OCc5ncc(Cl)cn5)n4)CC3)n(C[C@@H]3CCO3)c2c1 [Compound 164, (S)-2-((6-((5-chloropyrimidin-2-yl)methoxy)-3′,6′-dihydro-[2H′-bipyridin]-1′(2′H)-yl)methyl)-1-(oxetan-2-ylmethyl)-1H-benzo[d]imidazole-6-carboxylic acid]	≤ 150
O=C(O)c1ccc2nc(CN3CC(=O)N(c4cccc(OCc5ccc(Cl)cc5F)n4)CC3=O)n(C[C@@H]3CCO3)c2c1 [Compound 168, (S)-2-((4-(6-(4-chloro-2-fluorobenzyloxy)pyridin-2-yl)-2,5-dioxopiperazin-1-yl)methyl)-1-(oxetan-2-ylmethyl)-1H-benzo[d]imidazole-6-carboxylic acid]	≤ 15
O=C(O)c1ccc2nc(CN3CC=C(c4cc(F)cc(OCc5ccc(Cl)cc5F)c4)CC3)n(C[C@@H]3CCO3)c2c1 [Compound 42, (S)-2-((4-(3-((4-chloro-2-fluorobenzyl)oxy)-5-fluorophenyl)-3,6-dihydropyridin-1(2H)-yl)methyl)-1-(oxetan-2-ylmethyl)-1 h-benzo[d]imidazole-6-carboxylic acid]	≤ 15
O=C(O)c1ccc2nc(CN3CC=C(c4ncc(F)c(OCc5ccc(C#CC6CC6)cc5F)n4)CC3)n(C[C@@H]3CCO3)c2c1 [Compound 209, (S)-2-((4-(4-((4-(cyclopropylethynyl)-2-fluorobenzyl)oxy)-5-fluoropyrimidin-2-yl)-3,6-dihydropyridin-1(2H)-yl)methyl)-1-(oxetan-2-ylmethyl)-1H-benzo[d]imidazole-6-carboxylic add]	≤ 15
N#Cc1ccc(COc2ncc(F)c(C3=CCN(Cc4nc5ccc(C(=O)O)cc5n4C[C@@H]4CCO4)CC3)n2)c(F)c1 [Compound 210, (S)-2-((4-(2-(4-cyano-2-fluorobenzyloxy)-5-fluoropyrimidin-4-yl)-5,6-dihydropyridin-1(2H)-yl)methyl)-1-(oxetan-2-ylmethyl)-1H-benzo[d]imidazole-6-carboxylic add]	≤ 15
N#Cc1ccc(CNc2nc(C3=CCN(Cc4nc5ccc(C(=O)O)cc5n4C[C@@H]4CCO4)CC3)c(F)cc2F)c(F)c1 [Compound 217, (S)-2-((6-((4-cyano-2-fluorobenzyl)amino)-3,5-difluoro-3′,6′-dihydro-[2,4′-bipyridin]-1′(2′H)-yl)methyl)-1-(oxetan-2-ylmethyl)-1H-benzo[d]imidazole-6-carboxylic add]	≤ 15
O=C(O)c1ccc2nc(CN3CC=C(c4nc(OCc5ccc(Cl)cc5F)ncc4F)CC3)n(C[C@@H]3CCO3)c2c1 [Compound 126, (S)-2-((4-(2-(4-chloro-2-fluorobenzyloxy)-5-fluoropyrimidin-4-yl)-5,6-dihydropyridin-1(2H)-yl)methyl)-1-(oxetan-2-ylmethyl)-1H-benzo[d]imidazole-6-carboxylic acid]	≤ 15
CCn1cncc1Cn1c(CN2CC=C(c3cccc(OCc4ccc(C#N)cc4F)n3)CC2)nc2ccc(C(=O)O)cc21 [Compound 182, 2-((6-((4-cyano-2-fluorobenzyl)oxy)-3′,6′-dihydro-[2,4′-bipyridin]-1′(2′H)-yl)methyl)-1-((1-ethyl-1H-imidazol-5-yl)methyl)-1H-benzo[d]imidazole-6-carboxylic acid]	≤ 15
O=C(O)c1ccc2nc(CN3CC4CCC3CN4c3cccc(OCc4ccc(Cl)cc4F)n3)n(C[C@@H]3CCO3)c2c1 (stereo partly drawn) [Compound 17, 2-((5-(6-((4-chloro-2-fluorobenzyl)oxy)pyridin-2-yl)-2,5-diazabicyclo[2.2.2]octan-2-yl)methyl)-1-(((S)-oxetan-2-yl)methyl)-1 h-benzo[d]imidazole-6-carboxylic acid]	> 1000
O=C(O)c1ccc2nc(CN3CCN(c4cc(OCc5ccc(C#CC6CC6)cc5F)ccc4F)CC3)n(C[C@@H]3CCO3)c2c1 [Compound 198, (S)-2-((4-(5-((4-(cyclopropylethynyl)-2-fluorobenzyl)oxy)-2-fluorophenyl)piperazin-1-yl)methyl)-1-(oxetan-2-ylmethyl)-1H-benzo[d]imidazole-6-carboxylic acid]	≤ 1000
O=C(O)c1ccc2nc(CN3CC=C(c4cc(OCc5ccc(C#CC6CC6)cc5F)ccc4F)CC3)n(C[C@@H]3CCO3)c2c1 [Compound 208]	≤ 150
O=C(O)c1ccc2nc(CN3CC=C(c4cccc(OCc5ccc(C#CC6CC6)cc5F)n4)CC3)n(C[C@@H]3CCO3)c2c1 [Compound 108, (S)-2-((6-((4-(cyclopropylethynyl)-2-fluorobenzyl)oxy)-3′,6′-dihydro-[2,4′-bipyridin]-1′(2′H)-yl)methyl)-1-(oxetan-2-ylmethyl)-1H-benzo[d]imidazole-6-carboxylic acid]	≤ 15
O=C(O)c1ccc2nc(CN3CC=C(c4nc(OCc5ccc(Cl)cc5F)c(F)cc4F)CC3)n(C[C@@H]3CCO3)c2c1 [Compound 131, (S)-2-((4-(6-(4-chloro-2-fluorobenzyloxy)-3,5-difluoropyridin-2-yl)-5,6-dihydropyridin-1(2H)-yl)methyl)-1-(oxetan-2-ylmethyl)-1H-benzo[d]imidazole-6-carboxylic add]	≤ 15
O=C(O)c1ccc2nc(CN3CC=C(c4cccc(OCc5ccc(F)cc5)n4)CC3)n(C[C@@H]3CCO3)c2c1 [Compound 157, (S)-2-((6-((4-fluorobenzyl)oxy)-3′,6′-dihydro-[2H′-bipyridin]-1′(2′H)-yl)methyl)-1-(oxetan-2-ylmethyl)-1H-benzo[d]imidazole-6-carboxylic acid]	≤ 15
O=C(O)c1ccc2nc(CN3CC=C(c4cccc(OCc5ccc6c(c5)OC(F)(F)O6)n4)CC3)n(C[C@@H]3CCO3)c2c1 [Compound 153, (S)-2-((6-((2,2-difluorobenzo[d][1,3]dioxol-5-yl)methoxy)-3′,6′-dihydro-[2,4′-bipyridin]-1′(2′H)-yl)methyl)-1-(oxetan-2-ylmethyl)-1H-benzo[d]imidazole-6-carboxylic acid]	≤ 15
O=C(O)c1ccc2nc(CN3CC=C(c4nccc(NCc5ccc(Cl)cc5F)n4)CC3)n(C[C@@H]3CCO3)c2c1 [Compound 124, (S)-2-((4-(4-((4-chloro-2-fluorobenzyl)amino)pyrimidin-2-yl)-5,6-dihydropyridin-1(2H)-yl)methyl)-1-(oxetan-2-ylmethyl)-1H-benzo[d]imidazole-6-carboxylic add]	≤ 1000
O=C(O)c1ccc2nc(CN3CC=C(c4cc(OCc5ccc(Cl)cc5F)c(F)cc4F)CC3)n(C[C@@H]3CCO3)c2c1 [Compound 132, (S)-2-((4-(5-((4-chloro-2-fluorobenzyl)oxy)-2H-difluorophenyl)-3,6-dihydropyridin-1(2H)-yl)methyl)-1-(oxetan-2-ylmethyl)-1H-benzo[d]imidazole-6-carboxylic acid]	≤ 1000
O=C(O)c1ccc2nc(CN3CC=C(c4nccc(OCc5ccc(F)cc5F)n4)CC3)n(C[C@@H]3CCO3)c2c1 [Compound 214, (S)-2-((4-(4-((2,4-difluorobenzyl)oxy)pyrimidin-2-yl)-3,6-dihydropyridin-1(2H)-yl)methyl)-1-(oxetan-2-ylmethyl)-1H-benzo[d]imidazole-6-carboxylic add]	≤ 150
N#Cc1ccc(COc2cc(C3=CCN(Cc4nc5ccc(C(=O)O)cc5n4C[C@@H]4CCO4)CC3)cc(F)c2F)c(F)c1 [Compound 205, (S)-2-((4-(3-(4-cyano-2-fluorobenzyloxy)-4,5-difluorophenyl)-5,6-dihydropyridin-1(2H)-yl)methyl)-1-(oxetan-2-ylmethyl)-1H-benzo[d]imidazole-6-carboxylic acid]	≤ 150
O=C(O)c1ccc2nc(CN3CC=C(c4cccc(OCc5cccc(C(F)(F)F)c5)n4)CC3)n(C[C@@H]3CCO3)c2c1 [Compound 134, (S)-1-(oxetan-2-ylmethyl)-2-((6-((3-(trifluoromethyl)benzyl)oxy)-3′,6′-dihydro-[2,4′-bipyridin]-1′(2H)-yl)methyl)-1H-benzo[d]imidazole-6-carboxylic acid]	≤ 15
